{"source": "patent US9278963B2", "about": "“Pyrimidine hydroxy amide compounds as histone deacetylase inhibitors” (Acetylon Pharmaceuticals, Inc., priority 2013, dated 2016)", "key": {"HDAC1": {"biological_target": "HDAC1 (Homo sapiens (Human), UniProt Q13547)", "sequence (Q13547 whole entry)": "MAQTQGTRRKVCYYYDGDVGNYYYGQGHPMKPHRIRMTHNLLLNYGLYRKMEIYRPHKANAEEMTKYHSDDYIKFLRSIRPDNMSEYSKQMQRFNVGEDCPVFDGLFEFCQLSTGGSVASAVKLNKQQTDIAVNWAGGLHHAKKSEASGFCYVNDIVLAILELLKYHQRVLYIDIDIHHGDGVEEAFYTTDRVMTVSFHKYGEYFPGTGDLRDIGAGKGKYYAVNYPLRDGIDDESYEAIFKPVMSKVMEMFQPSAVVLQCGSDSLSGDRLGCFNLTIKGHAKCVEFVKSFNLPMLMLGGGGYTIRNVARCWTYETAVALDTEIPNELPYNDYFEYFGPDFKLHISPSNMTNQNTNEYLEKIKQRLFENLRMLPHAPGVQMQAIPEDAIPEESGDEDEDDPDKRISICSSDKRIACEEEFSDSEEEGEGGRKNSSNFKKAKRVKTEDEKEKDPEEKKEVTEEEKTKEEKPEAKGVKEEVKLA", "assay": "HDAC enzyme assay, HDAC1", "format": "biochemical", "description": "(§1) Compounds for testing were diluted in DMSO to 50 fold the final concentration and a ten point three fold dilution series was made. The compounds were diluted in assay buffer (50 mM HEPES, pH 7.4, 100 mM KCl, 0.001% Tween-20, 0.05% BSA, 20 μM TCEP) to 6 fold their final concentration. The HDAC enzymes (purchased from BPS Biosciences) were diluted to 1.5 fold their final concentration in assay buffer. The tripeptide substrate and trypsin at 0.05 μM final concentration were diluted in assay buffer at 6 fold their final concentration. The final enzyme concentrations used in these assays were 3.3 ng/ml (HDAC1), 0.2 ng/ml (HDAC2), 0.08 ng/ml (HDAC3) and 2 ng/ml (HDAC6). The final substrate concentrations used were 16 μM (HDAC1), 10 μM (HDAC2), 17 μM (HDAC3) and 14 μM (HDAC6).\n(§2) Five μl of compounds and 20 μl of enzyme were added to wells of a black, opaque 384 well plate in duplicate. Enzyme and compound were incubated together at room temperature for 10 minutes. Five μ1 of substrate was added to each well, the plate was shaken for 60 seconds and placed into a Victor 2 microtiter plate reader. The development of fluorescence was monitored for 60 min and the linear rate of the reaction was calculated. The IC50 was determined using Graph Pad Prism by a four parameter curve fit."}, "H929 human myeloma cells": {"system": "H929 human myeloma cells", "assay": "In vitro cell proliferation, MTS viability", "format": "cell-based", "conditions": "up to 7 days, relative to Day 0", "description": "Cellular viability was assessed using Aqueous One MTS reagent at Days 0 (immediately after seeding), 3, 5, and 7."}, "HDAC6": {"biological_target": "HDAC6 (Homo sapiens (Human), UniProt Q9UBN7)", "sequence (Q9UBN7 whole entry)": "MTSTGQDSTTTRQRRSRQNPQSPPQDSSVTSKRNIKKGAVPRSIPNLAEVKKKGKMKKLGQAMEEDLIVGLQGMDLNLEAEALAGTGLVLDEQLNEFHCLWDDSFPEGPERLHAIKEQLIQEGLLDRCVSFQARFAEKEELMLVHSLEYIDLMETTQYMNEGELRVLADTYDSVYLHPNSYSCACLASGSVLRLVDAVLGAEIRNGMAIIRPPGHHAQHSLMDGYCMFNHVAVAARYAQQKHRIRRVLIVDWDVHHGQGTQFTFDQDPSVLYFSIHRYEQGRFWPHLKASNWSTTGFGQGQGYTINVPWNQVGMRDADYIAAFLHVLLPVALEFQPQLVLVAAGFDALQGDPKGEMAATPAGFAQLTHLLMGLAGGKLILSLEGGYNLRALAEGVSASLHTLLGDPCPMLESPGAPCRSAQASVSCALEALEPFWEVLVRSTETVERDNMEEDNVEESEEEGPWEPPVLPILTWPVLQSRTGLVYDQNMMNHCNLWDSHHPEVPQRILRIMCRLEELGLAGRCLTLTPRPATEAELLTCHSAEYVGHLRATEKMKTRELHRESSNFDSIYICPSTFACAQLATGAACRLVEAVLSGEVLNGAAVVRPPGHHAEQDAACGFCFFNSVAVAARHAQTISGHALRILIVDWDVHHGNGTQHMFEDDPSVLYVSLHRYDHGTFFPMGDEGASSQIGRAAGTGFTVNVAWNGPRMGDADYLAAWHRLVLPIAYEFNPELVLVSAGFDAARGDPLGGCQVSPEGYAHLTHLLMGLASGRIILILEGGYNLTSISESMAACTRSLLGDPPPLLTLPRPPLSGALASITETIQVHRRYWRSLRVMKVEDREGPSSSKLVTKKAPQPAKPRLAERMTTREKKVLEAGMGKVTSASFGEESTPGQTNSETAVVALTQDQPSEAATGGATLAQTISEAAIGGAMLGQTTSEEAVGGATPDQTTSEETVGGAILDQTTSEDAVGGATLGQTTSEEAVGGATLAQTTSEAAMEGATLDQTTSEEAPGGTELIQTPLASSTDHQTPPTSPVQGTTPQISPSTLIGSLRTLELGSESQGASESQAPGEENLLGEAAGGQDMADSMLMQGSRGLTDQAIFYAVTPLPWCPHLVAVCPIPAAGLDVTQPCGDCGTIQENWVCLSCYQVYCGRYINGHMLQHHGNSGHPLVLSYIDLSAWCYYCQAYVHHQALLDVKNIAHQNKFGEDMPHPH", "assay": "HDAC enzyme assay, HDAC6", "format": "biochemical", "description": "as §1\nas §2, with “fit. The IC50 values obtained for several of the compounds of this invention are found in Table 1.” for “fit.”"}, "[1]": {"system": "SH-SY5Y neuroblastoma cells", "assay": "Neuroblastoma maturation gene expression, SH-SY5Y", "format": "cell-based", "conditions": "2 days, 3 μM", "description": "The following is a quick summary of the HDAC neuroblastoma maturation experiments. Adherent cells were plated into 12- or 24-well plates at 10^6 cells/well and allowed to adhere for 2-4 hours. Compounds were dispensed in DMSO at the indicated concentrations using an automated liquid handling system (Tecan D300) and incubated for the indicated times at 37° C. with 5% CO2. Cells were harvested and RNA extracted using the Qiagen RNeasy Mini Kit according to manufacture protocols. The RNA was quantified and relative expression levels were assessed using the Applied Biosystems TaqMan RNA-to-Ct Kit according to manufacture protocols using the indicated TaqMan probes.\nThe protocol for the maturation experiments was as follows. The day before the experiment, the cells were fed in the flask by doubling the media. The cells were then harvested by adding non-enzymatic cell dissociation media and incubating at 37° C. for 15 minutes. The cells were transferred to a 50 ml tube and pipet to create a single-cell suspension. The cells were washed with PBS buffer. The cells were then resuspended in complete media at 5×10^5 cells per ml. Next, 2 ml of cells were transferred to 24- or 12-well plates. […] The RNA concentration was recorded. The relative RNA levels were assessed using the Applied Biosystems TaqMan RNA-to-Ct kit according to manufacture protocols using the indicated Taqman probes."}, "[2]": {"system": "SH-SY5Y neuroblastoma cells", "assay": "Neuroblastoma cell cycle by flow cytometry, SH-SY5Y", "format": "cell-based", "conditions": "72 hours, 0.5, 2 and 5 μM (ATRA 1 μM)", "description": "The following is a quick summary of the neuroblastoma cell cycle experiments. Adherent cells were plated into 12-well plates at 10^6 cells/well and allowed to adhere for 2-4 hours. Compounds were dispensed in DMSO at the indicated concentrations using an automated liquid handling system (Tecan D300) and incubated for the indicated times at 37° C. with 5% CO2. Cells were harvested with enzyme-free cell disassociation solution and washed with buffered saline. Cells were fixed overnight with 100% ethanol. Cell cycle was assessed by flow cytometry using the Molecular Probes FxCycle PI/RNase Staining Solution kit according to manufacture protocols.\nThe protocol for the cell cycle experiments was as follows. The day before the experiment, the cells were fed in the flask by doubling the media. Then, the cells were harvested by adding non-enzymatic cell dissociation media and incubating at 37° C. for 15 minutes. Next, the cells were transferred to a 50 ml tube and pipet to create a single-cell suspension. The cells were then washed with PBS buffer. Then, the cells were resuspended in complete media at 5×10^5 cells per ml. Next, 2 ml of cells were transferred to 12-well plates. Then, the treatment compounds were dispensed into each well using the D300 liquid handler. The cells were incubated for the indicated time at 37° C. Then, the cells were harvested by adding 500 μl enzyme free cell dissociation solution and incubating at 37° C. for 15 minutes. Next, the cells were spun into a pellet and then washed with PBS. Then, 500 μl 100% EtOH was added and incubated at 4° C. overnight. Then, the cells were washed 3× with PBS. The cells were then resuspended in […] FxCycle PI/RNase solution, and incubated for 2-4 hours at room temperature. Finally, the cells were assayed by flow cytometry.\nSH-SY5Y neuroblastoma cells were treated with varying concentrations of either Compound X or Y, and/or ATRA (all trans retinoic acid). […] In addition, the fold change of p21 was also calculated. […] The HDACi/ATRA combination effects were modest, with little difference compared to single agents."}, "HDAC2 [3]": {"biological_target": "T1, HDAC2 (Homo sapiens (Human), UniProt Q92769)", "T1 sequence (Q92769 whole entry)": "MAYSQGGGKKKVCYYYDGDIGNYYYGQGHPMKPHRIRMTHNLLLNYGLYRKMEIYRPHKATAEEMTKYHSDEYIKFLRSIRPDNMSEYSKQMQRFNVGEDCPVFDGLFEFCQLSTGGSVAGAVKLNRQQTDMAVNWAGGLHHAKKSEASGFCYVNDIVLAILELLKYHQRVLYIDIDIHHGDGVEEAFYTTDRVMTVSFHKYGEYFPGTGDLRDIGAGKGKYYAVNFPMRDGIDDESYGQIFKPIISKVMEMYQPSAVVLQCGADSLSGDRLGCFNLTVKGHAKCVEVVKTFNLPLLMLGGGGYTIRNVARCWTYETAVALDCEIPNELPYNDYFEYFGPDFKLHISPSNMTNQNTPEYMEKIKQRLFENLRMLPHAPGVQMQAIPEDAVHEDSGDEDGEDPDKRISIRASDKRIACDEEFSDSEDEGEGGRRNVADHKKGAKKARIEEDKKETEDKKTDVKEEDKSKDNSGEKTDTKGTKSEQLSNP", "assay": "HDAC2glo assay", "format": "cell-based"}, "fetal globin (HbG)": {"system": "fetal globin (HbG)", "assay": "Fetal globin (HbG) induction in cultured CD34+ bone marrow cells", "format": "cell-based, human", "conditions": "1 μM, treatment for 4 days"}, "HDAC2 [4]": {"biological_target": "T1, HDAC2", "assay": "HDAC enzyme assay, HDAC2", "format": "biochemical", "description": "as §1, §2"}}, "data": [{"smiles": "O=C(NO)c1cnc(NC2(c3ccccc3)CCN(C(=O)Nc3ccccc3)CC2)nc1", "note": "[Compound 001, N-hydroxy-2-((4-phenyl-1-(phenylcarbamoyl)piperidin-4-yl)amino)pyrimidine-5-carboxamide]", "values": [{"measurement": "IC50", "setting": "HDAC1", "result": 38, "unit": "nM"}, {"measurement": "selectivity for HDAC1 and 2", "setting": "HDAC1; relative to HDAC3", "result": 30, "unit": "fold"}, {"measurement": "doses resulting in a net decrease in the viability of H929 cells", "setting": "H929 human myeloma cells", "result": "over 3 uM"}, {"measurement": "IC50", "setting": "HDAC6", "result": 1.9, "unit": "nM"}, {"measurement": "fold change of genes associated with maturation", "setting": "[1]", "result": "induces gene expression changes that are consistent with maturation"}, {"measurement": "percent of the cell population in G2, S, G1 and Sub G1 phase", "setting": "[2]", "result": "induced a reduction in G1/G2 and increase in sub-G1"}, {"measurement": "concentration at which maximal HDAC2 inhibition was reached", "setting": "HDAC2 [3]", "result": "3 to 4", "unit": "µM"}, {"measurement": "increase in the percentage of HbG relative to other beta-like globin transcripts", "setting": "fetal globin (HbG)", "result": 2, "unit": "fold"}, {"measurement": "IC50", "setting": "HDAC2 [4]", "result": 34, "unit": "nM"}]}]}
